Source: patent US20050215562A1, “Methods for treating protein aggregation disorders” (priority 2003, published 2005)

How the values were obtained:
NAC peptide [1] = target: T1, NAC peptide (Homo sapiens, UniProt P37840); assay: Circular dichroism (CD) analysis of NAC peptide conformation after incubation with test compounds (fibrillogenesis assay); type: biochemical; design: key to CD Result (NAC conformation observed): Random Coil: signifies that the NAC in the sample was observed to have been maintained in its original random coil conformation indicating that the compound coincubated with NAC is active; signifies that the compound was not able to prevent the shift from random coil to β-sheet; β-sheet/β-turn: signifies that the compound was not able to prevent the shift from random coil to β-sheet; Transition: signifies that the NAC was observed to be in the process of converting from random coil to β-sheet indicating that the compound was able to slow down the conformational change and indicates activity; settings: for CD Result (NAC conformation observed): 125 μL of 40 μM NAC peptide with 125 μL of 200 μM test compound, pH 7.4, 37° C., conformations over repeated trials; for Activity (CD): active if it prevents the transition to β-turn/β-sheet in 50% or more of the trials; for Activity: active trials / trials: number of CD trials in which transition to β-turn/β-sheet was prevented, over trials run
T1 construct: a 35 amino acid peptide corresponding to residues 61 to 95 of the α-synuclein protein; made in house; host or cells: chemical solid-phase peptide synthesis (Fmoc), not expressed
Experimental: 2 mM Solutions were prepared in TBSA buffer (Tris 0.02 M, NaCl 0.15 M, NaN3 0.005%, pH 7.4) and stored at 4° C. For the assays, compounds were diluted to the desired concentrations in TBSAE buffer (Tris 0.02 M, NaCl 0.15 M, NaN3 0.005%, EDTA 100 μM, pH 7.4) and combined with the NAC peptides.
(§1) Fibrillogenesis assays were employed to identify test compounds that inhibit NAC's ability to assemble into fibers. Following removal of HFIP by evaporation under N2 gas, 20 μM NAC peptide is incubated in the assay buffer (0.02M Tris, 0.15 M NaCl, 0.005% NaN3, 100 uM EDTA) at 37° C. in a Perkin-Elmer HTS 7000 plus microplate reader with shaking for 1 minute every twenty minutes. The presence of fibers can be monitored by three different methods.
(§2) The following assays were set up in clear polystyrene 96 well microplates by combining 125 μL of 40 μM NAC peptide with 125 μL of 200 μM test compound in 0.02M Tris, 0.15 M NaCl, 0.005% NaN3, […]. The microplates were sealed with a plastic sheet and incubated at 37° C. in a Perkin-Elmer HTS 7000 microplate reader with shaking for 1 minute, every 20 minutes. • Thioflavin T Analysis. To perform this assay 5 μM Thioflavin T is added to the NAC assembly conditions described above. The fluorescence is measured at 430 excitation/485 emission every twenty minutes with a Perkin-Elmer HTS microplate reader for the duration of the assay. […] This assay allows for the identification of compounds that can inhibit this increase in fluorescence upon incubation. • Turbidity Analysis. Alternatively, NAC peptide that has been incubated with test compounds in the appropriate assembly conditions can be analyzed by reading the absorbance at 405 nm to follow the turbidity of the solution which is also an indication of the formation of aggregates. • Circular Dichroism (CD) Analysis. […] This assay allows for the identification of compounds that can prevent NAC from adopting a β-sheet/β-turn conformation upon incubation. • At the appropriate time point, during the incubation, the test solutions were transferred to 0.1-cm path length quartz cuvettes and scanned by CD spectroscopy between 190 and 260 nm, with a resolution of 0.1 nm and a bandwidth of 1 nm using a Jasco J-715 spectropolarimeter at 37° C. […] At the time point at which CD scans are performed a 3 μl aliquot is removed from the sample, spotted onto a Formvar grid and then negatively stained with 4% uranyl acetate. The grids were examined for the presence of fibrils and amorphous aggregates using a JOEL 2000 transmission electron microscope at a 25,000 × magnification. This assay can be used to confirm the absence of fibers in the presence of compounds which inhibit NAC assembly by ThT and CD. The final results were obtained by averaging 10 complete sectors.
For compounds that have been tested multiple times, a compound is classified as active if it prevents the transition to β-turn/β-sheet in 50% or more of the trials.

NAC peptide [2] = target: T1, NAC peptide; assay: Electron microscopy (EM) analysis of NAC fiber formation in the fibrillogenesis assay; type: biochemical; settings: for EM Score: amount of fibers compared to NAC alone (100% fibers), 10 frames of a 300-mesh grid
Experimental: as §1, §2
Analysis by Electron Microscopy: The fibrillogenesis assays performed for CD analysis were also spotted for EM. The electron micrographs are visually examined and a score is assigned as follows. Briefly, 10 representative frames from a 300-mesh grid are analyzed and given a score representing the amount of fibers formed in the sample as compared to a micrograph with NAC alone without a test compound (100% fibers). A score was assigned based on this analysis on a scale from 0% to 100% fibers: (−) indicates an observation of less than about 25% fibers; (+) indicates about 25% fibers; (++) about 50% fibers; (+++) indicates about 75% fibers; and (++++) 100% fibers. […]

NAC peptide [3] = target: T1, NAC peptide; assay: Binding of compounds to NAC peptide by electrospray mass spectrometry; settings: area of bound NAC-compound complex peaks divided by area of unbound NAC peaks; 5:1 compound:NAC, pH 7.4, 6.6% EtOH
Experimental: The ability of the compounds of the present invention to bind to NAC peptide in aqueous solution was evaluated. The binding ability correlates to the intensities of the peptide-compound complex peaks observed by the Electrospray Mass Spectrum. Millipore distilled deionized water was used to prepare all aqueous solutions. For pH determination a Beckman (Φ36 pH meter fitted with a Corning Semi-Micro Combination pH Electrode was employed.
The optimal cone voltage was determined to be 20V.
Mass spectrometry: Mass spectrometric analysis was performed using a Waters ZQ 4000 mass spectrometer equipped with a Waters 2795 sample manager. MassLynx 4.0 (earlier by MassLynx 3.5) was used for data processing and analysis. Test compounds were mixed with disaggregated peptides in aqueous media (6.6% EtOH) at a 5:1 ratio (20 μM NAC: 100 μM of test compound or 40 μM NAC : 200 μM of test compound). The pH of the mixture was adjusted to 7.4 (±0.2) using 0.1% NaOH (3-5 μL). Periodically, NAC peptide solution at 20 μM or 40 μM was also prepared in the same fashion and run as control. The spectra were obtained by introducing the solutions to the electrospray source by direct infusion using a syringe pump at a flow rate of 25 μl/min, and scanning from 100 to 2100 Da in the positive mode. The scan time was 0.9 sec per scan with an inter-scan delay of 0.1 sec and the run time was 5 min for each sample. All the mass spectra were sum of 300 scans. The desolvation and source temperature was 70° C. and the cone and capillary voltage were maintained at 20 V and 3.2 kV respectively.
The total area under the peaks for the bound NAC-compound complex divided by total area under the peaks for unbound NAC was determined for each compound tested.

| Effect on NAC conformation by CD (NAC peptide [1]; NAC incubated in presence of heparin, minimum at 218 nm typical of β-sheet) | Appearance of NAC fibers by EM (NAC peptide [2]; NAC in the presence of heparin) | Activity (EM) (NAC peptide [2]) | EM Score (NAC peptide [2]) | CD Result (NAC conformation observed) (NAC peptide [1]) | Activity (CD) (NAC peptide [1]) | Activity: active trials / trials (NAC peptide [1]) | Molecule | Binding Strength (NAC peptide [3]) |
| --- | --- | --- | --- | --- | --- | --- | --- | --- |
| promotes a conformational change | longer and more interwined fibers |  |  |  |  |  | heparin [reference compound] |  |
|  |  | Yes | AA+ |  |  |  | NCCCCS(=O)(=O)O [drawing 63] |  |
|  |  | No | +++ ((+++) indicates about 75% fibers) |  |  |  | O=S(=O)(O)CC(O)CNC1CCCCC1 (stereo not drawn) [drawing 64] |  |

Second part, the molecule before the results:

| Molecule | Effect on NAC conformation by CD (NAC peptide [1]; NAC incubated in presence of heparin, minimum at 218 nm typical of β-sheet) | Appearance of NAC fibers by EM (NAC peptide [2]; NAC in the presence of heparin) | Activity (EM) (NAC peptide [2]) | EM Score (NAC peptide [2]) | CD Result (NAC conformation observed) (NAC peptide [1]) | Activity (CD) (NAC peptide [1]) | Activity: active trials / trials (NAC peptide [1]) | Binding Strength (NAC peptide [3]) |
| --- | --- | --- | --- | --- | --- | --- | --- | --- |
| O=S(=O)(O)CCC[N+]12CCC(CC1)CC2 [drawing 65] |  |  | Yes | + ((+) indicates about 25% fibers) |  |  |  |  |
| CC[N+](CC)(CC)CCCS(=O)(=O)[O-] [drawing 62] |  |  | Yes | AA+ |  |  |  |  |
| CCCCCCCCCCCCCCCCS(C)(C)CCCS(=O)(=O)O [compound 11] |  |  |  |  | Random Coil | Coil | 4/4 | ++ (Moderate; when the total binding is between 120% and 70%) |
| O=S(=O)(O)OCCCOS(=O)(=O)O [compound 2] |  |  |  |  | Random Coil TRansition | Yes | 2/2 | − (None; when the total binding is between 30% and 0%) |
| CCCCCCCCCCCCS(C)(C)CCCS(C)(=O)=O [compound 9] |  |  |  |  | Random Coil | Yes | 4/4 | − (None; when the total binding is between 30% and 0%) |
| NCCOS(=O)(=O)O [compound 3] |  |  |  |  | β- turn/βsheet | No | 0/2 | − (None; when the total binding is between 30% and 0%) |
| O=S(=O)(O)CCCCS(=O)(=O)O [compound 1] |  |  |  |  | Random Coil β-sheet | Yes | ½ | − (None; when the total binding is between 30% and 0%) |
